melting point: 144 to 148 °C
SMILES: CC(C)N(C)S(=O)(=O)NC(=O)c1cc(N=C=O)c(F)cc1Cl

Source: US8541611B2 (dated 2013)
